Assay results from patent US20170066759A1, “AROMATIC 5-MEMBERED HETEROCYCLIC DERIVATIVE HAVING TRPV4-INHIBITING ACTIVITY” (Shionogi & Co., Ltd., priority 2012, published 2017).

Target: T1, human TRPV4 (hTRPV4/CHO cells) (Homo sapiens, UniProt Q9HBA0)
T1 construct: expressed in transfected cells; host or cells: CHO-K1
Experiment: Test Example 1: TRPV4 inhibitory activity (IC50 value), 4α-PDD stimulation, Fluo4 calcium fluorescence (FLIPR TETRA)
Format: cell-based
Conditions: Test Example 1, 4α-PDD stimulation, read-out: Test 1 IC50

T1 sequence (Q9HBA0 whole entry): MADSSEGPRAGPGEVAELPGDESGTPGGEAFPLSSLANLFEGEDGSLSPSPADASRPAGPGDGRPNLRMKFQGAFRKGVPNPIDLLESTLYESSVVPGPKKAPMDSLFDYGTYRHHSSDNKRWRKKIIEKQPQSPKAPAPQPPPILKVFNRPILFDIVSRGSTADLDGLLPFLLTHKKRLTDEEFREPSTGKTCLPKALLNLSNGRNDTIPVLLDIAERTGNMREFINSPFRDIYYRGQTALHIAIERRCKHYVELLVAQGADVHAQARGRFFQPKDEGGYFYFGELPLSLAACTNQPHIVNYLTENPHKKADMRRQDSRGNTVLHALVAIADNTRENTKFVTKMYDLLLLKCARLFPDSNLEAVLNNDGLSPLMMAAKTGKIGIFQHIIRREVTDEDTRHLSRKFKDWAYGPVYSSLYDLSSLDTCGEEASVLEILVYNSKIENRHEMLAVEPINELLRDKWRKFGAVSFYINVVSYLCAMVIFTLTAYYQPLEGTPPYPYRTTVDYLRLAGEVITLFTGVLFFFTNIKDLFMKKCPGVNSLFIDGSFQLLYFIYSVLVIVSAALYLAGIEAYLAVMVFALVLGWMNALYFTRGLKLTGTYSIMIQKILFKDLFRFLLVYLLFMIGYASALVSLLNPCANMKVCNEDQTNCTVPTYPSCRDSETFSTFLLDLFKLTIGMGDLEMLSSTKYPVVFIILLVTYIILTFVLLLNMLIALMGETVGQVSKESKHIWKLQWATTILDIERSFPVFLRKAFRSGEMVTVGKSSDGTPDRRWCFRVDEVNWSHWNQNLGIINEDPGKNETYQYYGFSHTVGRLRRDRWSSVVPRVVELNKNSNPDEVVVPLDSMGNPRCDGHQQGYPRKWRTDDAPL

Compound | IC50 [nM]
Cc1nc(C)c(-c2csc(NC(=O)Cc3ccc(C(F)(F)F)cn3)n2)s1 [Compound I-104] | < 100
CON(C)C(=O)c1nc(C)c(-c2csc(NC(=O)Cc3c(F)cccc3F)n2)s1 [Compound I-105] | 1000 to 8000
Cc1nc(C(N)=O)sc1-c1csc(NC(=O)C2CC2(F)F)n1 (stereo not shown) [Compound I-106] | 1000 to 8000
Cc1nc(C(=O)NC#N)sc1-c1csc(NC(=O)Cc2c(F)cccc2F)n1 [Compound I-108] | 1000 to 8000
Cc1nc(C(F)F)sc1-c1csc(NC(=O)C2CC2)n1 [Compound I-109] | 1000 to 8000
Cc1nc(C(F)F)sc1-c1csc(NC(=O)Cn2cc(Cl)cn2)n1 [Compound I-110] | 100 to 1000
Cc1nc(C(F)F)sc1-c1csc(NC(=O)C2CC(OCc3ccccc3)C2)n1 (stereo not shown) [Compound I-111] | 1000 to 8000
Cc1nc(C(F)F)sc1-c1csc(NC(=O)C2CC2(F)F)n1 (stereo not shown) [Compound I-112] | 1000 to 8000
CNC(=O)c1nc(C)c(-c2csc(NC(=O)Cc3c(F)cccc3F)n2)s1 [Compound I-113] | 1000 to 8000
Cc1nc(C(=O)N(C)C)sc1-c1csc(NC(=O)Cc2c(F)cccc2F)n1 [Compound I-114] | 1000 to 8000
Cc1nc(C(=O)NS(C)(=O)=O)sc1-c1csc(NC(=O)Cc2c(F)cccc2F)n1 [Compound I-115] | 1000 to 8000
Cc1nc(C)c(-c2csc(NC(=O)Cc3ccc(S(=O)(=O)C(F)(F)F)cc3)n2)s1 [Compound I-117] | 100 to 1000
Cc1nc(C)c(-c2csc(NC(=O)Cc3ccc(C(F)(F)F)cn3)n2)s1 [Compound I-118] | 100 to 1000
Cc1nc(C)c(-c2csc(NC(=O)Cc3ccc(S(C)(=O)=O)cc3)n2)s1 [Compound I-119] | 1000 to 8000
Cc1nc(C)c(-c2csc(NC(=O)C3CC3(F)F)n2)s1 (stereo not shown) [Compound I-120] | 1000 to 8000
Cc1nc(C)c(-c2csc(NC(=O)Cc3ccccc3C#N)n2)s1 [Compound I-121] | 100 to 1000
Cc1nc(C)c(-c2csc(NC(=O)Cc3ccc(S(=O)(=O)C(C)C)cc3)n2)s1 [Compound I-122] | 100 to 1000

Compound | IC50 [nM]
Cc1nc(C)c(-c2csc(NC(=O)Cn3cc(C#N)cn3)n2)s1 [Compound I-123] | 1000 to 8000
Cc1nc(C)c(-c2csc(NC(=O)Cn3cc(C(F)(F)F)cn3)n2)s1 [Compound I-124] | < 100
Cc1nc(C(=O)NCCO)sc1-c1csc(NC(=O)Cc2c(F)cccc2F)n1 [Compound I-125] | 1000 to 8000
Cc1nc(C(=O)NCCN(C)C)sc1-c1csc(NC(=O)Cc2c(F)cccc2F)n1 [Compound I-126] | 1000 to 8000
Cc1nc(C(N)=O)sc1-c1csc(NC(=O)Cn2cc(Cl)cn2)n1 [Compound I-127] | 100 to 1000
Cc1nc(C(C)(C)O)c(-c2csc(NC(=O)Cc3c(F)cccc3F)n2)s1 [Compound I-128] | 100 to 1000
CC(=O)c1nc(C)sc1-c1csc(NC(=O)Cc2c(F)cccc2F)n1 [Compound I-129] | 100 to 1000
Cc1nc(C(C)O)c(-c2csc(NC(=O)Cc3c(F)cccc3F)n2)s1 (stereo not shown) [Compound I-130] | 100 to 1000
Cc1nc(C)c(-c2csc(NC(=O)Cn3cc(Br)cn3)n2)s1 [Compound I-132] | < 100
Cc1nc(C(O)CO)sc1-c1csc(NC(=O)Cc2c(F)cccc2F)n1 (stereo not shown) [Compound I-133] | 1000 to 8000
Cc1nc(C)c(-c2csc(NC(=O)Cn3cc(-c4ccccc4)cn3)n2)s1 [Compound I-134] | < 100
Cc1nc(C(O)CC(=O)O)sc1-c1csc(NC(=O)Cc2c(F)cccc2F)n1 (stereo not shown) [Compound I-135] | 1000 to 8000
Cc1nc(CO)sc1-c1csc(NC(=O)Cn2cc(C(F)(F)F)cn2)n1 [Compound I-136] | < 100
Cc1nc(C)c(-c2csc(NC(=O)Cc3cccc(OC(F)(F)F)c3)n2)o1 [Compound I-137] | 100 to 1000
Cc1nc(C)c(-c2csc(NC(=O)Cc3cccc(C#N)c3)n2)o1 [Compound I-138] | 1000 to 8000
Cc1nc(C)c(-c2csc(NC(=O)Cc3ccc(C(F)(F)F)cc3)n2)o1 [Compound I-139] | 100 to 1000
Cc1nc(C)c(-c2csc(NC(=O)Cn3cc(Cl)cn3)n2)o1 [Compound I-140] | 1000 to 8000
